Measurements published in US9115137B2, “2,3,4,5-tetrahydro-1H-pyrido[4,3-B]indole compounds and methods of use thereof” (priority 2008, dated 2015).

Columns and labels:
[1] = molecular target: T1, human recombinant adrenergic α2B receptor (Homo sapiens, UniProt P18089); assay: Adrenergic α2B radioligand binding ([3H]Rauwolscine); details: compound at 1 μM; CHO-K1 cells; read-out: Adrenergic (1 μM) α2B, percent inhibition of specific binding
T1 construct: expressed in transfected cells; host or cells: CHO-K1 cells
T1 sequence (P18089 1-450): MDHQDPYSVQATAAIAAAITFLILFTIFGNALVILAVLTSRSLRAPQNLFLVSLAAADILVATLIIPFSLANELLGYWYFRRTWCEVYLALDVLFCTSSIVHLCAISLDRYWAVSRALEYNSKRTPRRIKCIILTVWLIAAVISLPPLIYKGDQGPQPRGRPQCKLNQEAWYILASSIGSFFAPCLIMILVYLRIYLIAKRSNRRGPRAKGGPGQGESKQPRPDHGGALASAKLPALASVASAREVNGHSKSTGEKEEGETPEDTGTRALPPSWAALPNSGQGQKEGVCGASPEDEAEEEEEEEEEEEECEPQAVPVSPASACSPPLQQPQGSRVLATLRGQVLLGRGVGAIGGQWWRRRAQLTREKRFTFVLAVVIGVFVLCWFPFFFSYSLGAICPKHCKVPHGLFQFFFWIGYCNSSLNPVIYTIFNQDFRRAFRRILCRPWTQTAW
Outline: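 CHO-K1 membranes expressing the receptor were incubated with test compounds (1 μM or lower, 1% DMSO) and 2.5 nM [3H]Rauwolscine for 60 min at 25° C in Tris-HCl pH 7.4 with MgCl2, EDTA and BSA. Bound radioactivity was filtered and counted; nonspecific binding was defined with 10 μM Prazosin, giving percent inhibition of specific binding.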

[2] = molecular target: T2, human recombinant adrenergic α2A receptor (Homo sapiens, UniProt P08913); assay: Adrenergic α2A radioligand binding ([3H]MK-912); details: compound at 1 μM; insect Sf9 cells; read-out: Adrenergic (1 μM) α2A, percent inhibition of specific binding
T2 construct: expressed in transfected cells; host or cells: insect Sf9 cells
T2 sequence (P08913 1-465): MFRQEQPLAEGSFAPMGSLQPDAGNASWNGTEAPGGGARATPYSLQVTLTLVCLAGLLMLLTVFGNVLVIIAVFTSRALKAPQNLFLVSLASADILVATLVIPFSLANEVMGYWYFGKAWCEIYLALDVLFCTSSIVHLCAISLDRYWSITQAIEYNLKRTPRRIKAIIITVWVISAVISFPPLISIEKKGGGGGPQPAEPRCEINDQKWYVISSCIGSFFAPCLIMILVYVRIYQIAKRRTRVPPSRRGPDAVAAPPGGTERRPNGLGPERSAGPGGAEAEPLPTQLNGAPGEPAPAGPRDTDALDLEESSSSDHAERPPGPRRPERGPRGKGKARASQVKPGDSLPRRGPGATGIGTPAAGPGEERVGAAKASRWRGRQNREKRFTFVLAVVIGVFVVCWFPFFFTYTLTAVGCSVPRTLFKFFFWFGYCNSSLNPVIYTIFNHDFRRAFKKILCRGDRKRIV
Outline: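 Membranes from Sf9 cells expressing the receptor were incubated with 1 nM [3H]MK-912 for 60 min at 25 °C in Tris-HCl pH 7.4 with MgCl2 and EDTA. Nonspecific binding defined by 10 μM WB-4101; compounds tested at ≤1 μM (1% DMSO), reported as percent inhibition of specific binding.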

[3] = molecular target: T3, human recombinant dopamine D2L receptor (Homo sapiens, UniProt P14416); assay: Dopamine D2L radioligand binding ([3H]Spiperone); details: compound at 1 μM; CHO cells; read-out: Dopamine (1 μM) D2L, percent inhibition of specific binding
T3 construct: expressed in transfected cells; host or cells: CHO cells
Outline: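 CHO cells expressing the receptor, in 50 mM Tris-HCl pH 7.4 with 1.4 mM ascorbic acid, 0.001% BSA, 150 mM NaCl; 0.16 nM [3H]spiperone, 120 min at 25° C, nonspecific binding with 10 μM haloperidol.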

[4] = molecular target: T4, human recombinant serotonin (5-Hydroxytryptamine) 5-HT6 receptor (Homo sapiens, UniProt P50406); assay: Serotonin 5-HT6 radioligand binding ([3H]LSD); details: compound at 1 μM; HeLa cells; read-out: Serotonin (1 μM) 5-HT6, percent inhibition of specific binding
T4 construct: expressed in transfected cells; host or cells: human HeLa cells
Outline: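 HeLa membranes expressing receptor, in 50 mM Tris-HCl pH 7.4 with 150 mM NaCl, 2 mM ascorbate, 0.001% BSA, incubated with 1.5 nM [3H]LSD for 120 min at 37 °C. Nonspecific binding defined with 5 μM 5-HT.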

T3 sequence (P14416 whole entry): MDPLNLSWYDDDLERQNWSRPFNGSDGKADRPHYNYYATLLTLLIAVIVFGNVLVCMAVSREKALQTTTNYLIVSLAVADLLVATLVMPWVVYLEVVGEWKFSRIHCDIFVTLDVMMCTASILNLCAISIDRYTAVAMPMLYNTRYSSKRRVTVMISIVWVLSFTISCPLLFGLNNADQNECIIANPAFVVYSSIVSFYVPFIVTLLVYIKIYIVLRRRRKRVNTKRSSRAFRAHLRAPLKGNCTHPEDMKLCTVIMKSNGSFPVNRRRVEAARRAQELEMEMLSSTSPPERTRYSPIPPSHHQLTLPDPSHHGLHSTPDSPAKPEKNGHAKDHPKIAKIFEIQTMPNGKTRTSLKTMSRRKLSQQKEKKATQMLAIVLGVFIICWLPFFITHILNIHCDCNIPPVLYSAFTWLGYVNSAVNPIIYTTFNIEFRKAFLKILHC
T4 sequence (P50406 whole entry): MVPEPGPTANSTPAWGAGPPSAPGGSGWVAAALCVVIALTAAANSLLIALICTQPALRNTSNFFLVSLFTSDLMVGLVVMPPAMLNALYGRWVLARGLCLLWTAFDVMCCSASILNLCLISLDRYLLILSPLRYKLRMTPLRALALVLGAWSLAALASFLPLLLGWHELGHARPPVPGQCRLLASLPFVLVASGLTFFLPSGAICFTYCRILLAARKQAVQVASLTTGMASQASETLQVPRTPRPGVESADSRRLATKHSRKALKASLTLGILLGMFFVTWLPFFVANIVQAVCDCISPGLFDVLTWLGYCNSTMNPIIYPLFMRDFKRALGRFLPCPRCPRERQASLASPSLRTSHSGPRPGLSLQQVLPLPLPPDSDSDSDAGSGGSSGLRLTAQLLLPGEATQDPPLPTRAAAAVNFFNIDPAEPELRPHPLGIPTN

Row | Structure (SMILES) | inhibition at 1 µM [1] | inhibition at 1 µM [2] | inhibition at 1 µM [3] | inhibition at 1 µM [4]
1 | CN1CCc2c(c3cc(Cl)ccc3n2CCC(=O)N(C)C)C1 [Compound 49, 3-(8-chloro-1,2,3,4-tetrahydro-2-methylpyrido[4,3-b]indol-5-yl)-N,N-dimethylpropanamide] | 76% | 83% | 9% | 24%
2 | Cc1ccc2c(c1)c1c(n2CCNC(=O)c2ccncc2)CCN(C)C1 [Compound 50, N-(2-(1,2,3,4-tetrahydro-2,8-dimethylpyrido[4,3-b]indol-5-yl)ethyl)isonicotinamide] | 70% | 38% | 7% | -1%
3 | Cc1ccc2c(c1)c1c(n2CC(=O)Nc2ccc(F)cc2)CCN(C)C1 [Compound 51, N-(4-fluorophenyl)-2-(1,2,3,4-tetrahydro-2,8-dimethylpyrido[4,3-b]indol-5-yl)acetamide] | 82% | 22% | 19% | 30%
4 | CCCCOC(=O)Cn1c2c(c3cc(Cl)ccc31)CN(C)CC2 [Compound 52, butyl 2-(8-chloro-1,2,3,4-tetrahydro-2-methylpyrido[4,3-b]indol-5-yl)acetate] | 89% | 38% | 22% | 83%
5 | Cc1ccc2c(c1)c1c(n2CCC(=O)NC(C)C)CCN(C)C1 [Compound 53] | 86% | 54% | -2% | 22%
6 | Cc1ccc2c(c1)c1c(n2CCC(=O)NCc2ccccc2)CCN(C)C1 [Compound 59, N-benzyl-3-(1,2,3,4-tetrahydro-2,8-dimethylpyrido[4,3-b]indol-5-yl)propanamide] | 96% | 45% | 4% | 22%
7 | CN1CCc2c(c3cc(Cl)ccc3n2CC(=O)NC2CCCCC2)C1 [Compound 60, 2-(8-chloro-1,2,3,4-tetrahydro-2-methylpyrido[4,3-b]indol-5-yl)-N-cyclohexylacetamide] | 52% | 23% | 18% | 22%
8 | Cc1ccc2c(c1)c1c(n2CCNC(=O)C(C)C)CCN(C)C1 [Compound 61, N-(2-(1,2,3,4-tetrahydro-2,8-dimethylpyrido[4,3-b]indol-5-yl)ethyl)isobutyramide] | 70% | 46% | -3% | 10%
9 | Cc1ccc2c(c1)c1c(n2CCNC(=O)C2CCCCC2)CCN(C)C1 [Compound 62, N-(2-(1,2,3,4-tetrahydro-2,8-dimethylpyrido[4,3-b]indol-5-yl)ethyl)cyclohexanecarboxamide] | 92% | 40% | 5% | 19%
10 | Cc1ccc2c(c1)c1c(n2CCNC(=O)c2ccc(F)cc2Cl)CCN(C)C1 [Compound 63, 2-chloro-4-fluoro-N-(2-(1,2,3,4-tetrahydro-2,8-dimethylpyrido[4,3-b]indol-5-yl)ethyl)benzamide] | 98% | 65% | 7% | 31%
11 | Cc1ccc2c(c1)c1c(n2CC(N)=O)CCN(C)C1 [Compound 64, 2-(1,2,3,4-tetrahydro-2,8-dimethylpyrido[4,3-b]indol-5-yl)acetamide] | 40% | 9% | 2% | 5%
12 | Cc1ccc2c(c1)c1c(n2CCNC(=O)C2CCNCC2)CCN(C)C1 [Compound 65, N-(2-(1,2,3,4-tetrahydro-2,8-dimethylpyrido[4,3-b]indol-5-yl)ethyl)piperidine-4-carboxamide] | 12% | 17% | 7% | 3%
13 | Cc1ccc2c(c1)c1c(n2CCNC(=O)c2ccc(F)cc2)CCN(C)C1 [Compound 66, 4-fluoro-N-(2-(1,2,3,4-tetrahydro-2,8-dimethylpyrido[4,3-b]indol-5-yl)ethyl)benzamide] | 107% | 70% | -2% | 35%
14 | CN1CCc2c(c3cc(Cl)ccc3n2CCC(N)=O)C1 [Compound 67, 3-(8-chloro-1,2,3,4-tetrahydro-2-methylpyrido[4,3-b]indol-5-yl)propanamide] | 72% | 79% | -1% | 24%
15 | Cc1ccc2c(c1)c1c(n2CCNC(=O)C2CCCC2)CCN(C)C1 [Compound 68, N-(2-(1,2,3,4-tetrahydro-2,8-dimethylpyrido[4,3-b]indol-5-yl)ethyl)cyclopentanecarboxamide] | 84% | 62% | 1% | 15%
16 | Cc1ccc2c(c1)c1c(n2CCNC(=O)c2ccncc2C)CCN(C)C1 [Compound 69, N-(2-(1,2,3,4-tetrahydro-2,8-dimethylpyrido[4,3-b]indol-5-yl)ethyl)-3-methylpyridine-4-carboxamide] | 39% | 25% | 4% | -4%
17 | Cc1ccc2c(c1)c1c(n2C2CCCCC2O)CCN(C)C1 (centres unmarked) [Compound 73, 2-(1,2,3,4-tetrahydro-2,8-dimethylpyrido[4,3-b]indol-5-yl)cyclohexanol] | -2% | 11% | -3% | 7%
